Our source for the MIC and IC50 values is US11780838B1, “Pyrrolo[3,2-b]quinoline compounds as antibacterial agents” (King Faisal University, priority 2023, dated 2023).

pIC50: −log10 of the molar value. ≈ marks a conversion by molar mass, not a printed value. Where two headings read alike, the source gives them in different places.

In assay [1] the test system is Klebsiella pneumonia MTCC 618. As to the kind of experiment: In vitro antibacterial activity (MIC, CLSI M07-A10 dilution). The note with it: Klebsiella pneumoniae, MTCC618. It is filed as cell-based.
The subject of assay [2] is Mycobacterium tuberculosis H37Rv strain. Nature of the assay: Anti-tubercular properties (alamar blue microplate MIC). The format is cell-based. To be noted: 168 h, seven days at 37° C., read-out: anti-mycobacterial activity (MIC).
A further assay addresses T1, DNA gyrase from E. coli (Escherichia coli, UniProt P0AES4+P0AES6).
T1 construct: purchased Inspiralis
As to the kind of experiment: Inhibitory activities on E. coli DNA gyrase (Inspiralis assay). The format is biochemical. As to the method: Inhibitory potencies were investigated utilizing the Inspiralis assay on streptavidin-coated 96-well microtiter plates. First, the plates were rehydrated with buffer (20 mM Tris-HCl with pH 7.6, 0.01% w/v BSA, 0.05% v/v Tween 20, 137 mM NaCl) and the biotinylated oligonucleotide was then immobilized. After washing off the unbound oligonucleotide, the enzyme test was performed. […] Reaction solutions were incubated at 37° C. for 30 min. After that, the TF buffer (50 mM NaOAc with pH 5.0, 50 mM NaCl and 50 mM MgCl2) was added to terminate the enzymatic reaction. After additional incubation for 30 min at rt, during which biotinoligonucleotide-plasmid triplex was formed, the unbound plasmid was washed off using TF buffer and SybrGOLD in T10 buffer (10 mM Tris HCl with pH 8.0 and 1 mM EDTA) was added. The fluorescence was measured with a microplate reader (BioTek Synergy H4, excitation: 485 nm, emission: 535 nm). Initial screening was done at 100 or 10 μM concentration of inhibitors. […] GraphPad Prism software was used to calculate the IC50 values. The result is given as the average value of three independent measurements.

The test system of assay [3] is Staphylococcus aureus ATCC 29213. As to the kind of experiment: In vitro antibacterial activity (MIC, CLSI M07-A10 dilution). The format is cell-based. To be noted: ATCC29213.
Assay [4] has as its system Staphylococcus aureus ATCC BAA-1556 (MERSA resistant). The assay is described as above. It is filed as cell-based. The note with it: ATCCBAA1556.
In assay [5] the test system is Staphylococcus epidermidis. The assay is described as above. It is filed as cell-based.
In assay [6] the test system is Bacillus subtilis MTCC 441. Described as above. The format is cell-based. To be noted: MTCC441.
Assay [7] deals with Enterococcus faecium ATCC 35667. Described as above. The format is cell-based. To be noted: ATCC35667.
The subject of assay [8] is Enterococcus faecium ATCC 51559 (VRE resistant). The description is as above. It is filed as cell-based.
Assay [9] relates to Escherichia coli MTCC 443. The assay is described as above. The format is cell-based. To be noted: MTCC443.
The test system of assay [10] is Pseudomonas aeruginosa MTCC 741. The assay is described as above. The format is cell-based. To be noted: MTCC741.

T1 sequence (P0AES4 whole entry, one chain of several): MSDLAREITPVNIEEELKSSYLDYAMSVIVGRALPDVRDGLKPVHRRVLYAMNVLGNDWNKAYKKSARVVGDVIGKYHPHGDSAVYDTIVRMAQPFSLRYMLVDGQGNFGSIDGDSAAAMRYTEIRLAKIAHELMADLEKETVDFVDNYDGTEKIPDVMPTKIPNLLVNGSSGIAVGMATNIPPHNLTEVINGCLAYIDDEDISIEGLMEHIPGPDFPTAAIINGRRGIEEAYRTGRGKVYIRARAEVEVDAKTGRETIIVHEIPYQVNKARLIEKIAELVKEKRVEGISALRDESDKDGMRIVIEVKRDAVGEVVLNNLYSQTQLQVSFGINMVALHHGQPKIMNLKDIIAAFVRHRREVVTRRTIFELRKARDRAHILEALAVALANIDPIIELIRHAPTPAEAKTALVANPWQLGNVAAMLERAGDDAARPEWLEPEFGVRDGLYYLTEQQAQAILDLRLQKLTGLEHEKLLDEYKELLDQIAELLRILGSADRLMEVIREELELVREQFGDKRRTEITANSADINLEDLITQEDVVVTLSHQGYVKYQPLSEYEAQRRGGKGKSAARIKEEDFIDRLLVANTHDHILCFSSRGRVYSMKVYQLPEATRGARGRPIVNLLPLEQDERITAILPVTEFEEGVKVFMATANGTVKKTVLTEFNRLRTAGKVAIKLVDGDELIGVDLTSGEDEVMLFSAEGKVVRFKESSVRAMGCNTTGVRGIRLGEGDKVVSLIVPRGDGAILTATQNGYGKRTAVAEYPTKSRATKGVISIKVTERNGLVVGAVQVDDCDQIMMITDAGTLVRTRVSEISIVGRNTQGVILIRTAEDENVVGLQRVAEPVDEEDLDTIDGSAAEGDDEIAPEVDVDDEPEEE

Regarding `CN[C@H](CC(C)C)C(=O)N[C@H]1C(=O)N[C@@H](CC(N)=O)C(=O)N[C@H]2C(=O)N[C@H]3C(=O)N[C@H](C(=O)N[C@H](C(=O)O)c4cc(O)cc(O)c4-c4cc3ccc4O)[C@H](O)c3ccc(c(Cl)c3)Oc3cc2cc(c3O[C@@H]2O[C@H](CO)[C@@H](O)[C@H](O)[C@H]2O[C@H]2C[C@](C)(N)[C@H](O)[C@H](C)O2)Oc2ccc(cc2Cl)[C@H]1O` [Vancomycin, reference compound], the MIC in [1] is over 128 µg/mL.
`CNc1cc(F)cc2cc3[nH]c(-c4ccc(C(=O)O)cc4CN(C)C4CCCCC4)cc3nc12` [Compound 4, 3-((cyclohexyl(methyl)amino)methyl)-4-(7-fluoro-5-(methylamino)-1H-pyrrolo[3,2-b]quinolin-2-yl)benzoic acid]: the MIC in [2] came out at 8 µg/mL (≈ 17.4 µM). In addition, at DNA gyrase from E. coli, the negative logarithm of the IC50 (pIC50) was 7.49.
For `CCCCCN(C)Cc1cc(C(=O)O)ccc1-c1cc2nc3c(NC)cc(F)cc3cc2[nH]1` [Compound 6, 4-(7-fluoro-5-(methylamino)-1H-pyrrolo[3,2-b]quinolin-2-yl)-3-((methyl(pentyl)amino)methyl)benzoic acid], the MIC was 1 µg/mL (≈ 2.23 µM) in assay [3]; 1 µg/mL (≈ 2.23 µM) in assay [4]; 1 µg/mL (≈ 2.23 µM) in assay [5]; 0.75 µg/mL (≈ 1.67 µM) in assay [6]; 1 µg/mL (≈ 2.23 µM) in assay [7]; 1.25 µg/mL (≈ 2.79 µM) in assay [8]. Moreover, the MIC was found to be 1.25 µg/mL (≈ 2.79 µM) in assay [1] (Klebsiella pneumonia MTCC 618, read-out: MIC); 8 µg/mL (≈ 17.8 µM) in [9]; 1 µg/mL (≈ 2.23 µM) in assay [10].
